According to patent US10420341B2, “Herbicidal phenylpyrimidines” (BASF SE, priority 2015, dated 2019):

Columns and labels:
APESV = assay: greenhouse pre-emergence herbicidal test; assay type: in vivo, Apera spica-venti; settings: pre-emergence method, scale from 0 to 100
Excerpt: (§1) The seeds of the test plants were sown separately for each species. For the pre-emergence treatment, the active ingredients, which had been suspended or emulsified in water, were applied directly after sowing by means of finely distributing nozzles. The containers were irrigated gently to promote germination and growth and subsequently covered with transparent plastic hoods until the plants had rooted. This cover caused uniform germination of the test plants, unless this had been impaired by the active ingredients. Depending on the species, the plants were kept at 10-25° C. or 20-35° C., respectively. The test period extended over 2 to 4 weeks. During this time, the plants were tended, and their response to the individual treatments was evaluated. Evaluation was carried out using a scale from 0 to 100. 100 means no emergence of the plants, or complete destruction of at least the aerial moieties, and 0 means no damage, or normal course of growth. […] The plants used in the greenhouse experiments were of the following species: [table]

AVEFA = assay: greenhouse post-emergence herbicidal test; assay type: in vivo, Avena fatua; settings: post-emergence method, scale from 0 to 100
Excerpt: (§2) The seeds of the test plants were sown separately for each species. For the post-emergence treatment, the test plants were first grown to a height of 3 to 15 cm, depending on the plant habit, and only then treated with the active ingredients which had been suspended or emulsified in water. For this purpose, the test plants were either sown directly and grown in the same containers, or they were first grown separately as seedlings and transplanted into the test containers a few days prior to treatment. Depending on the species, the plants were kept at 10-25° C. or 20-35° C., respectively. The test period extended over 2 to 4 weeks. During this time, the plants were tended, and their response to the individual treatments was evaluated. Evaluation was carried out using a scale from 0 to 100. 100 means no emergence of the plants, or complete destruction of at least the aerial moieties, and 0 means no damage, or normal course of growth. […] The plants used in the greenhouse experiments were of the following species: [table]

ALOMY = assay: greenhouse post-emergence herbicidal test; assay type: in vivo, Alopercurus myosuroides; settings: post-emergence method, scale from 0 to 100
Excerpt: as §2

ECHCG [1] = assay: greenhouse pre-emergence herbicidal test; assay type: in vivo, Echinocloa crus-galli; settings: pre-emergence method, scale from 0 to 100
Excerpt: as §1

ECHCG [2] = assay: greenhouse post-emergence herbicidal test; assay type: in vivo, Echinocloa crus-galli; settings: post-emergence method, scale from 0 to 100
Excerpt: as §2

SMILES | herbicidal activity against APESV (APESV; application rate 500 g/ha) | herbicidal activity against AVEFA (AVEFA; application rate 500 g/ha) | herbicidal activity against ECHCG (ECHCG [1]; application rate 500 g/ha) | herbicidal activity against APESV (APESV; application rate 1000 g/ha) | herbicidal activity against AVEFA (AVEFA; application rate 1000 g/ha) | herbicidal activity against ALOMY (ALOMY; application rate 1000 g/ha) | further results
O=C(O)c1nc(C2CC2)ncc1-c1ccc(F)cc1F [example 133] | very good (a very good herbicidal activity is given at values of at least 85) | very good (a very good herbicidal activity is given at values of at least 85) | very good (a very good herbicidal activity is given at values of at least 85) | – | – | – | herbicidal activity against ALOMY (ALOMY; application rate 500 g/ha): very good (a very good herbicidal activity is given at values of at least 85)
O=C(O)c1nc(C2CC2)ncc1-c1c(Cl)cc(Cl)cc1Cl [example 149] | – | – | – | very good (a very good herbicidal activity is given at values of at least 85) | very good (a very good herbicidal activity is given at values of at least 85) | very good (a very good herbicidal activity is given at values of at least 85) | –
N#Cc1cc(F)ccc1-c1cnc(C2CC2)nc1C(=O)O [example 157] | – | – | – | very good (a very good herbicidal activity is given at values of at least 85) | very good (a very good herbicidal activity is given at values of at least 85) | very good (a very good herbicidal activity is given at values of at least 85) | –
Cc1ccc(C)c(-c2cnc(C3CC3)nc2C(=O)O)c1 [example 165] | very good (a very good herbicidal activity is given at values of at least 85) | very good (a very good herbicidal activity is given at values of at least 85) | – | – | – | – | herbicidal activity against ALOMY (ALOMY; application rate 500 g/ha): very good (a very good herbicidal activity is given at values of at least 85)
COC(=O)c1nc(C2CC2)ncc1-c1c(F)cc(Cl)cc1Cl [example 194] | good (A good herbicidal activity is given at values of at least 70) | very good (a very good herbicidal activity is given at values of at least 85) | – | – | – | – | herbicidal activity against ALOMY (ALOMY; application rate 500 g/ha): good (A good herbicidal activity is given at values of at least 70)
COC(=O)c1nc(C2CC2)ncc1-c1c(Cl)cccc1OC [example 202] | – | – | – | good (A good herbicidal activity is given at values of at least 70) | – | very good (a very good herbicidal activity is given at values of at least 85) | herbicidal activity against ECHCG (ECHCG [2]; application rate 1000 g/ha): good (A good herbicidal activity is given at values of at least 70); herbicidal activity against ECHCG (ECHCG [1]; application rate 1000 g/ha): very good (a very good herbicidal activity is given at values of at least 85)
COC(=O)c1nc(C2CC2)ncc1-c1c(Cl)cc(Cl)cc1Cl [example 209] | – | – | – | very good (a very good herbicidal activity is given at values of at least 85) | very good (a very good herbicidal activity is given at values of at least 85) | very good (a very good herbicidal activity is given at values of at least 85) | –
COC(=O)c1nc(C2CC2)ncc1-c1ccccc1C#N [example 217] | very good (a very good herbicidal activity is given at values of at least 85) | – | very good (a very good herbicidal activity is given at values of at least 85) | – | – | – | herbicidal activity against ECHCG (ECHCG [2]; application rate 500 g/ha): very good (a very good herbicidal activity is given at values of at least 85); herbicidal activity against ALOMY (ALOMY; application rate 500 g/ha): good (A good herbicidal activity is given at values of at least 70)
COC(=O)c1nc(C2CC2)ncc1-c1cc(F)ccc1C#N [example 218] | very good (a very good herbicidal activity is given at values of at least 85) | very good (a very good herbicidal activity is given at values of at least 85) | very good (a very good herbicidal activity is given at values of at least 85) | – | – | – | herbicidal activity against ECHCG (ECHCG [2]; application rate 500 g/ha): very good (a very good herbicidal activity is given at values of at least 85)
COC(=O)c1nc(C2CC2)ncc1-c1ccc(F)cc1C#N [example 220] | very good (a very good herbicidal activity is given at values of at least 85) | very good (a very good herbicidal activity is given at values of at least 85) | – | – | – | – | herbicidal activity against ALOMY (ALOMY; application rate 500 g/ha): very good (a very good herbicidal activity is given at values of at least 85)
COC(=O)c1nc(C2CC2)ncc1-c1cc(OC)ccc1C [example 229] | very good (a very good herbicidal activity is given at values of at least 85) | – | very good (a very good herbicidal activity is given at values of at least 85) | – | – | – | herbicidal activity against ECHCG (ECHCG [2]; application rate 500 g/ha): very good (a very good herbicidal activity is given at values of at least 85); herbicidal activity against ALOMY (ALOMY; application rate 500 g/ha): good (A good herbicidal activity is given at values of at least 70)
COC(=O)c1nc(C2CC2)ncc1-c1ccc(C)cc1C [example 231] | – | – | – | very good (a very good herbicidal activity is given at values of at least 85) | – | good (A good herbicidal activity is given at values of at least 70) | herbicidal activity against ECHCG (ECHCG [2]; application rate 1000 g/ha): good (A good herbicidal activity is given at values of at least 70); herbicidal activity against ECHCG (ECHCG [1]; application rate 1000 g/ha): very good (a very good herbicidal activity is given at values of at least 85)
COC(=O)c1nc(C2CC2)ncc1-c1ccccc1C(F)(F)F [example 239] | – | – | – | very good (a very good herbicidal activity is given at values of at least 85) | very good (a very good herbicidal activity is given at values of at least 85) | – | herbicidal activity against ECHCG (ECHCG [1]; application rate 1000 g/ha): very good (a very good herbicidal activity is given at values of at least 85)
CC(C)OC(=O)c1nc(C2CC2)ncc1-c1ccccc1Cl [example 252] | – | – | – | – | very good (a very good herbicidal activity is given at values of at least 85) | very good (a very good herbicidal activity is given at values of at least 85) | herbicidal activity against ECHCG (ECHCG [1]; application rate 1000 g/ha): very good (a very good herbicidal activity is given at values of at least 85)
COC(=O)COC(=O)c1nc(C2CC2)ncc1-c1ccccc1Cl [example 261] | – | – | – | very good (a very good herbicidal activity is given at values of at least 85) | – | very good (a very good herbicidal activity is given at values of at least 85) | herbicidal activity against ECHCG (ECHCG [2]; application rate 1000 g/ha): very good (a very good herbicidal activity is given at values of at least 85); herbicidal activity against ECHCG (ECHCG [1]; application rate 1000 g/ha): very good (a very good herbicidal activity is given at values of at least 85)
O=C(OC1CC1)c1nc(C2CC2)ncc1-c1ccccc1Cl [example 262] | very good (a very good herbicidal activity is given at values of at least 85) | good (A good herbicidal activity is given at values of at least 70) | very good (a very good herbicidal activity is given at values of at least 85) | – | – | – | –
CC(C)OC(=O)CSC(=O)c1nc(C2CC2)ncc1-c1ccccc1Cl [example 279] | very good (a very good herbicidal activity is given at values of at least 85) | very good (a very good herbicidal activity is given at values of at least 85) | very good (a very good herbicidal activity is given at values of at least 85) | – | – | – | –
COc1ccc(CSC(=O)c2nc(C3CC3)ncc2-c2ccccc2Cl)cc1 [example 282] | very good (a very good herbicidal activity is given at values of at least 85) | very good (a very good herbicidal activity is given at values of at least 85) | – | – | – | – | –
CCSC(=O)c1nc(C2CC2)ncc1-c1ccccc1Cl [example 291] | very good (a very good herbicidal activity is given at values of at least 85) | very good (a very good herbicidal activity is given at values of at least 85) | very good (a very good herbicidal activity is given at values of at least 85) | – | – | – | herbicidal activity against ECHCG (ECHCG [2]; application rate 500 g/ha): very good (a very good herbicidal activity is given at values of at least 85)
COC(=O)c1nc(C(F)(F)F)ncc1-c1ccccc1Cl [example 316] | – | – | – | good (A good herbicidal activity is given at values of at least 70) | good (A good herbicidal activity is given at values of at least 70) | – | herbicidal activity against ECHCG (ECHCG [1]; application rate 1000 g/ha): good (A good herbicidal activity is given at values of at least 70)
COC(=O)c1nc(C2CC2)ncc1-c1ccccc1SC(F)(F)F [example 321] | – | – | – | – | herbicidal activity | – | –
